One may read the EC50 as the concentration at which the effect is half-maximal. The low end stands for a more potent agent, the high end for a less potent agent. What is called IC50 is the point on the concentration scale where inhibition reaches its midpoint.

In patent US20140155415A1, “BENZ[…] BENZODIOXINE COMPOUNDS THAT INTERACT WITH G[…] FOR THE TREATMENT OF DIABETES” (priority 2011, published 2014) one finds EC50 and IC50 data, which are given here for 34 compounds.

Test [1] concerns the target T1, GK-GKRP (glucokinase / glucokinase regulatory protein) (Homo sapiens, UniProt Q14397).
T1 sequence (Q14397 1-625): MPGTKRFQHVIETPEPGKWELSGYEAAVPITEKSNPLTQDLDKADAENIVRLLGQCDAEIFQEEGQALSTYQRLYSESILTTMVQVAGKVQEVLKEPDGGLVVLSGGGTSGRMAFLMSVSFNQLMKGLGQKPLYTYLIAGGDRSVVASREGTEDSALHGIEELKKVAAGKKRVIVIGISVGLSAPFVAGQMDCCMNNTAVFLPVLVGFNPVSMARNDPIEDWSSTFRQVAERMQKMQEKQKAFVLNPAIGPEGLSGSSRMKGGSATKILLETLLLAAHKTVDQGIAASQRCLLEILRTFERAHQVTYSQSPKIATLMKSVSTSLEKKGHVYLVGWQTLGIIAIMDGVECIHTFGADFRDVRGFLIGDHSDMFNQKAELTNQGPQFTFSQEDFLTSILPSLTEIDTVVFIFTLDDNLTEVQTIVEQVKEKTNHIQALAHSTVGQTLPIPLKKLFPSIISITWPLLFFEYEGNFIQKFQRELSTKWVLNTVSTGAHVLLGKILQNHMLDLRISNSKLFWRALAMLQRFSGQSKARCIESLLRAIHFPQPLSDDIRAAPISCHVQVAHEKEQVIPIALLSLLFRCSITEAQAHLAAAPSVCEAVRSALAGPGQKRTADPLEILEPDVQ
Briefly: GKRP LC MS/MS Biochemical Assay (LCMS/MS). Particulars: formation of 13C-glucose-6-phosphate from 13C-glucose by LC MS/MS, human His-hepatic GK, fructose-6-phosphate. A digest of the protocol:
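Human His-tagged hepatic GK (30 nM working stock, 5×) with GKRP in 50 mM Tris pH 7.5, 4 mM MgCl2, 6% DMSO; compound preincubated 30 min, then GK added for 30 min at room temperature. Acetonitrile-stopped; 13C-glucose-6-phosphate formed from 13C-glucose quantified by LC MS/MS.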

Test [2] concerns the target T2, GK-GKRP (interaction between glucokinase and glucokinase regulatory protein) (Homo sapiens, UniProt Q14397).
T2 construct: made in house; host or cells: GKRP: baculovirus system
T2 sequence (Q14397 1-625): T1 sequence (Q14397 1-625)
The experiment in a line: GK-GKRP Binding Assay (Binding), AlphaScreen. Conditions: avi-tagged GKRP, GK-fluorescein, AlphaScreen beads, 1 μM sorbitol-6-phosphate; read-out: GK-GKRP IC50 (Binding). A digest of the protocol:
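Biotinylated, C-terminally avi-tagged human GKRP was preincubated 20 min at room temperature with compound, then fluorescein-labelled human hepatic GK was added (6 nM in the added buffer). The mix was incubated 2 h at room temperature in the dark before AlphaScreen reading. Buffer was 20 mM Tris pH 7.5, 0.05% BSA, 1 mM DTT, 1 μM sorbitol-6-phosphate.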

Compound `O=S(=O)(NC(c1ccccc1)c1cc2cccc(Cl)c2s1)c1ccc2c(c1)OCCCO2` (racemic) [Example 72, N-((7-chloro-1-benzothiophen-2-yl)(phenyl)methyl)-3,4-dihydro-2H-1,5-benzodioxepine-7-sulfonamide] displayed a concentration for a half-maximal effect (EC50) in test [1] of 480 nM. Also, in test [2], the IC50 was found to be 1000 nM.

In turn, `O=S(=O)(NC(c1ccccc1)c1cc2cccc(-c3ccccc3)c2s1)c1ccc2c(c1)OCCCO2` (racemic) [Example 73, N-(phenyl(7-phenyl-1-benzothiophen-2-yl)methyl)-3,4-dihydro-2H-1,5-benzodioxepine-7-sulfonamide] registered an EC50 in test [1] of 1000 nM. The IC50 in test [2] was determined as 1200 nM.

For the compound `CSc1ccccc1C(NS(=O)(=O)c1ccc2c(c1)OCCO2)c1cc2ccccc2s1` (racemic) [Example 75, N-(1-benzothiophen-2-yl(2-(methylsulfanyl)phenyl)methyl)-2,3-dihydro-1,4-benzodioxine-6-sulfonamide], the EC50 in test [1] stood at 340 nM. Also, in test [2], the IC50 was found to be 950 nM.

In test [1], `CCc1ccccc1[C@H](NS(=O)(=O)c1ccc2c(c1)OCCCO2)c1cc2ccccc2o1` (single isomer, unassigned) [Example 6 Peak #1] returned an EC50 of more than 50000 nM. In addition, the IC50 in test [2] worked out at 4800 nM.

For the compound `CCc1ccccc1[C@@H](NS(=O)(=O)c1ccc2c(c1)OCCCO2)c1cc2ccccc2o1` (single isomer, unassigned) [Example 6 Peak #2], the EC50 in test [1] was determined as 40 nM. In test [2], the IC50 came to 110 nM.

Regarding `COc1ccccc1[C@H](NS(=O)(=O)c1ccc2c(c1)OCCCO2)c1cc2ccccc2o1` (single isomer, unassigned) [Example 17 Peak #1], the EC50 in test [1] worked out at 6100 nM. Further, the IC50 in test [2] is 1200 nM.

In turn, `COc1ccccc1[C@@H](NS(=O)(=O)c1ccc2c(c1)OCCCO2)c1cc2ccccc2o1` (single isomer, unassigned) [Example 17 Peak #2] had an EC50 in test [1] of 52 nM. Besides, the IC50 in test [2] was 52 nM.

`CSc1ccccc1[C@H](NS(=O)(=O)c1ccc2c(c1)OCCCO2)c1cc2ccccc2o1` (single isomer, unassigned) [Example 19 Peak #1] displayed an EC50 in test [1] of 290 nM. Moreover, the IC50 in test [2] turned out to be 970 nM.

`CSc1ccccc1[C@@H](NS(=O)(=O)c1ccc2c(c1)OCCCO2)c1cc2ccccc2o1` (single isomer, unassigned) [Example 19 Peak #2] came in with an EC50 in test [1] of 23 nM. Moreover, the IC50 in test [2] came to 46 nM.

`O=S(=O)(N[C@H](c1cc2ccccc2o1)c1ccccc1Cl)c1ccc2c(c1)OCCCO2` (single isomer, unassigned) [Example 20 Peak #1] returned an EC50 in test [1] of more than 20000 nM. Moreover, the IC50 in test [2] was determined as 5700 nM.

For the compound `O=S(=O)(N[C@@H](c1cc2ccccc2o1)c1ccccc1Cl)c1ccc2c(c1)OCCCO2` (single isomer, unassigned) [Example 20 Peak #2], it took 30 nM to reach a half-maximal effect in test [1] (EC50). In addition, in test [2], the IC50 came to 78 nM.

As for `O=S(=O)(N[C@H](c1cc2ccccc2o1)c1ccccc1I)c1ccc2c(c1)OCCCO2` (single isomer, unassigned) [Example 21 Peak #1], in test [1], the EC50 is more than 20000 nM. Besides, the IC50 in test [2] is more than 33000 nM.

Take `O=S(=O)(N[C@@H](c1cc2ccccc2o1)c1ccccc1I)c1ccc2c(c1)OCCCO2` (single isomer, unassigned) [Example 21 Peak #2]: the EC50 in test [1] was determined as 42 nM. Further, in test [2], the IC50 was 40 nM.

`O=S(=O)(N[C@H](c1cc2ccccc2o1)c1ccccc1Br)c1ccc2c(c1)OCCCO2` (single isomer, unassigned) [Example 22 Peak #1] showed an EC50 in test [1] of more than 20000 nM. In test [2], the IC50 stood at 4500 nM.

`O=S(=O)(N[C@@H](c1cc2ccccc2o1)c1ccccc1Br)c1ccc2c(c1)OCCCO2` (single isomer, unassigned) [Example 22 Peak #2]: it took 26 nM to reach a half-maximal effect in test [1] (EC50). For the same compound, the IC50 in test [2] was found to be 83 nM.

As for `O=S(=O)(N[C@@H](c1ccccn1)c1cc2ccccc2o1)c1ccc2c(c1)OCCCO2` (single isomer, unassigned) [Example 25 Peak #1], the EC50 in test [1] stood at 6000 nM. In addition, the IC50 in test [2] amounted to 3800 nM.

For the compound `O=S(=O)(N[C@H](c1ccccn1)c1cc2ccccc2o1)c1ccc2c(c1)OCCCO2` (single isomer, unassigned) [Example 25 Peak #2], the EC50 in test [1] is 290 nM. Also, the IC50 in test [2] was found to be 210 nM.

Turning to `Cc1cccnc1[C@@H](NS(=O)(=O)c1ccc2c(c1)OCCCO2)c1cc2ccccc2o1` (single isomer, unassigned) [Example 26 Peak #2], the midpoint of the response in test [1], the EC50, lay at 85 nM. In test [2], the IC50 was found to be 120 nM.

`Cc1ccccc1[C@H](NS(=O)(=O)c1ccc2c(c1)OCCCO2)c1cc2ccccc2s1` (single isomer, unassigned) [Example 36 Peak #1]: in test [1], the EC50 is more than 20000 nM. In test [2], the IC50 is 4000 nM.

In test [1], `Cc1ccccc1[C@@H](NS(=O)(=O)c1ccc2c(c1)OCCCO2)c1cc2ccccc2s1` (single isomer, unassigned) [Example 36 Peak #2] yielded an EC50 of 62 nM. Besides, in test [2], the IC50 is 240 nM.

In test [1], `CCc1ccccc1[C@H](NS(=O)(=O)c1ccc2c(c1)OCCCO2)c1cc2ccccc2s1` (single isomer, unassigned) [Example 37 Peak #1] registered an EC50 of more than 20000 nM. Besides, the IC50 in test [2] is 1300 nM.

In test [1], `CCc1ccccc1[C@@H](NS(=O)(=O)c1ccc2c(c1)OCCCO2)c1cc2ccccc2s1` (single isomer, unassigned) [Example 37 Peak #2] gave an EC50 of 38 nM. In addition, in test [2], the IC50 was 130 nM.

`COc1ccccc1[C@H](NS(=O)(=O)c1ccc2c(c1)OCCCO2)c1cc2ccccc2s1` (single isomer, unassigned) [Example 40 Peak #1] registered a half-maximal effective concentration (EC50) in test [1] of 130 nM. For the same compound, in test [2], the IC50 amounted to 360 nM.

With `COc1ccccc1[C@@H](NS(=O)(=O)c1ccc2c(c1)OCCCO2)c1cc2ccccc2s1` (single isomer, unassigned) [Example 40 Peak #2], the response in test [1] was half-maximal at 26 nM (EC50). The IC50 in test [2] came out at 28 nM.

In the case of `CSc1ccccc1[C@H](NS(=O)(=O)c1ccc2c(c1)OCCCO2)c1cc2ccccc2s1` (single isomer, unassigned) [Example 41 Peak #1], in test [1], the EC50 is 40 nM. In test [2], the IC50 was 140 nM.

In test [1], `CSc1ccccc1[C@@H](NS(=O)(=O)c1ccc2c(c1)OCCCO2)c1cc2ccccc2s1` (single isomer, unassigned) [Example 41 Peak #2] returned an EC50 of 13 nM. The IC50 in test [2] was 8 nM.

Take `O=S(=O)(N[C@@H](c1ccccc1)c1cc2ccccc2s1)c1ccc2c(c1)OCCCO2` (single isomer, unassigned) [Example 57 Peak #1]: the response in test [1] was half-maximal at 700 nM (EC50). Besides, the IC50 in test [2] came to 3000 nM.

`O=S(=O)(N[C@H](c1ccccc1)c1cc2ccccc2s1)c1ccc2c(c1)OCCCO2` (single isomer, unassigned) [Example 57 Peak #2] had an EC50 in test [1] of 87 nM. The IC50 in test [2] worked out at 1900 nM.

In test [1], `CSc1ccccc1[C@H](NS(=O)(=O)c1ccc2c(c1)OCCCO2)c1cc2ccncc2s1` (single isomer, unassigned) [Example 64 Peak #1] yielded an EC50 of 180 nM. Besides, in test [2], the IC50 turned out to be 430 nM.

Turning to `CSc1ccccc1[C@@H](NS(=O)(=O)c1ccc2c(c1)OCCCO2)c1cc2ccncc2s1` (single isomer, unassigned) [Example 64 Peak #2], it took 10 nM to reach a half-maximal effect in test [1] (EC50). In test [2], the IC50 came to 1 nM.

`CSc1ccccc1[C@@H](NS(=O)(=O)c1ccc2c(c1)OCCCO2)c1nc2cccnc2s1` (single isomer, unassigned) [Example 65 Peak #2]: in test [1], the EC50 was 15 nM. In addition, the IC50 in test [2] is 7 nM.

Take `COc1ccccc1[C@@H](NS(=O)(=O)c1ccc2c(c1)OCCCO2)c1nc2cccnc2s1` (single isomer, unassigned) [Example 67 Peak #2]: the EC50 in test [1] was found to be 24 nM. In addition, the IC50 in test [2] was 48 nM.

Compound `O=S(=O)(N[C@@H](c1nc2cccnc2s1)c1ccccc1Cl)c1ccc2c(c1)OCCCO2` (single isomer, unassigned) [Example 68 Peak #2] yielded an EC50 in test [1] of 29 nM. Also, the IC50 in test [2] is 20 nM.

In the case of `C[C@@](O)(c1ccnc(-c2cccc3cc([C@H](NS(=O)(=O)c4ccc5c(c4)OCCCO5)c4ccccc4)sc23)c1)C(F)(F)F` (single isomer, unassigned) [Example 70 Peak #1], it took 17 nM to reach a half-maximal effect in test [1] (EC50). For the same compound, in test [2], the IC50 came out at 7 nM.
